Reference: the NIST ThermoML archive (doi:10.1021/je060271a)

Settings: Liquid, Vibrating tube method

CCCCCCC(=O)OCC(COC(=O)CCCCCC)(COC(=O)CCCCCC)COC(=O)CCCCCC [pentaerythritol tetraheptanoate]
Settings	mass density [kg/m3]
303.14 K, 15632 kPa	980.3
303.14 K, 15661 kPa	980.3
303.14 K, 15697 kPa	980.2
303.14 K, 15727 kPa	980.3
303.14 K, 15793 kPa	980.4
303.14 K, 15884 kPa	980.5
303.14 K, 15938 kPa	980.5
303.14 K, 16023 kPa	980.5
303.14 K, 16056 kPa	980.5
303.14 K, 16112 kPa	980.6
303.14 K, 16138 kPa	980.6
303.14 K, 16199 kPa	980.7
303.14 K, 16259 kPa	980.6
303.14 K, 16286 kPa	980.6
303.14 K, 16377 kPa	980.7
303.14 K, 16405 kPa	980.8
303.14 K, 16470 kPa	980.7
303.14 K, 16655 kPa	981
303.14 K, 16744 kPa	980.9
303.14 K, 16780 kPa	980.9
303.14 K, 16840 kPa	981
303.14 K, 16876 kPa	981
303.14 K, 17172 kPa	981.2
303.14 K, 17203 kPa	981.2
303.14 K, 17235 kPa	981.3
303.14 K, 17267 kPa	981.3
303.14 K, 17439 kPa	981.4
303.14 K, 17478 kPa	981.3
303.14 K, 17511 kPa	981.3
303.14 K, 17543 kPa	981.3
303.14 K, 17576 kPa	981.4
303.14 K, 17615 kPa	981.3
303.14 K, 17648 kPa	981.5
303.14 K, 17688 kPa	981.4
303.14 K, 17722 kPa	981.5
303.14 K, 18010 kPa	981.6
303.14 K, 18086 kPa	981.7
303.14 K, 18423 kPa	981.9
303.14 K, 18547 kPa	981.9
303.14 K, 18582 kPa	981.9
303.14 K, 18643 kPa	982
303.14 K, 18679 kPa	981.9
303.14 K, 18709 kPa	982
303.14 K, 18745 kPa	982.1
303.14 K, 18776 kPa	982
303.14 K, 18806 kPa	982
303.14 K, 18836 kPa	982.2
303.14 K, 18874 kPa	982.1
303.14 K, 18904 kPa	982.1
303.14 K, 19140 kPa	982.3
303.14 K, 19172 kPa	982.2
303.14 K, 19205 kPa	982.4
303.14 K, 19237 kPa	982.3
303.14 K, 19276 kPa	982.4
303.14 K, 19309 kPa	982.5
303.14 K, 19518 kPa	982.4
303.14 K, 19558 kPa	982.6
303.14 K, 19592 kPa	982.5
303.14 K, 19625 kPa	982.6
303.14 K, 19666 kPa	982.5
303.14 K, 19700 kPa	982.5
303.14 K, 19734 kPa	982.6
303.14 K, 19808 kPa	982.7
303.14 K, 19842 kPa	982.6
303.14 K, 19884 kPa	982.6
303.14 K, 20108 kPa	982.9
303.14 K, 20178 kPa	982.8
303.14 K, 20221 kPa	982.9
303.14 K, 20257 kPa	982.9
303.14 K, 20293 kPa	982.9
303.14 K, 20850 kPa	983.3
303.14 K, 20889 kPa	983.2
303.14 K, 21395 kPa	983.7
303.14 K, 21485 kPa	983.6
303.14 K, 21938 kPa	983.8
303.14 K, 21981 kPa	983.8
303.14 K, 22061 kPa	983.9
303.14 K, 22488 kPa	984.1
303.14 K, 22529 kPa	984.1
303.14 K, 22605 kPa	984.2
303.14 K, 22942 kPa	984.4
303.14 K, 22983 kPa	984.4
303.14 K, 23655 kPa	984.8
303.14 K, 23688 kPa	984.8
303.14 K, 23722 kPa	984.7
303.14 K, 23763 kPa	984.8
303.14 K, 24089 kPa	985
303.14 K, 24131 kPa	985.1
303.14 K, 24166 kPa	985.1
303.14 K, 24356 kPa	985.1
303.14 K, 28039 kPa	987.2
303.14 K, 29427 kPa	988
303.15 K, 11258 kPa	977.6
303.15 K, 11434 kPa	977.8
303.15 K, 11462 kPa	977.7
303.15 K, 11546 kPa	977.9
303.15 K, 11738 kPa	978
303.15 K, 13121 kPa	978.8
303.15 K, 13570 kPa	979
303.15 K, 13874 kPa	979.2
303.15 K, 13902 kPa	979.2
303.15 K, 13922 kPa	979.2
303.15 K, 13972 kPa	979.4
303.15 K, 14222 kPa	979.5
303.15 K, 14324 kPa	979.5
303.15 K, 14456 kPa	979.6
303.15 K, 14482 kPa	979.7
303.15 K, 14511 kPa	979.6
303.15 K, 14536 kPa	979.7
303.15 K, 14567 kPa	979.7
303.15 K, 14592 kPa	979.6
